Laboratory results published in patent publication US20230085307A1, “PYRIDAZINONE COMPOUND AND HERBICIDE” (NISSAN CHEMICAL CORPORATION, priority 2019, published 2023).

Experiments:
late watergrass = experiment: Test Example 2: herbicidal activity, application during weed generation under submerged conditions (Table 17, symbol A); format: in vivo, late watergrass (Echinochloa oryzicola); conditions: AAH 320 g/ha; application during weed generation, submerged conditions
Method: (§1) [Test Example 2] Herbicidal Activity Test by Application during Weed Generation under Submerged Conditions After alluvial soil was placed into 1/10000 are of Wagner pot, water was poured and mixed to form a submerged condition having a water depth of 4 cm. Seeds of late watergrass, Japanese bulrush, and oval-leafed pondweed were sowed in a mixed manner in the aforementioned pot, and the pot was placed in a greenhouse at 25° C. to 30° C. for growth of the plants. When late watergrass, Japanese bulrush, and oval-leafed pondweed were grown to one leaf stage to two leaf stage, the emulsion agent of the compound of the present invention prepared according to Formulation Example 2 was diluted with water so as to achieve a predetermined herbicide amount, and the diluted emulsion agent was applied to the surface of the water. Three weeks after the herbicide application, the effect of the herbicide on each plant was evaluated according to the criteria of Test Example 1.

persian speedwell = experiment: Test Example 5: herbicidal effect by foliage application, plastic box (Table 20, symbol R); format: in vivo, Persian speedwell (Veronica persica); conditions: foliage application, 320 g/ha, three weeks after application
How it was run: (§2)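 Plants sown in sterilized diluvial soil and grown 14 days in a greenhouse at 25° C to 30° C, then sprayed on the foliage with the compound's emulsion diluted in water to a predetermined herbicide amount. Injury to weeds and crops scored three weeks after application on a visual rating scale.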

chickweed = experiment: Test Example 5: herbicidal effect by foliage application, plastic box (Table 20, symbol P); format: in vivo, common chickweed (Stellaria media); conditions: foliage application, 320 g/ha, three weeks after application
How it was run: as §2

southern crabgrass [1] = experiment: Test Example 5: herbicidal effect by foliage application, plastic box (Table 20, symbol F); format: in vivo, southern crabgrass (Digitaria ciliaris); conditions: 320 g/ha
How it was run: as §2

blackgrass = experiment: Test Example 5: herbicidal effect by foliage application, plastic box (Table 20, symbol J); format: in vivo, blackgrass (Alopecurus myosuroides); conditions: foliage application, 320 g/ha, three weeks after application
How it was run: as §2

Japanese bulrush = experiment: Test Example 2: herbicidal activity, application during weed generation under submerged conditions (Table 17, symbol B); format: in vivo, Japanese bulrush (Schoenoplectus juncoides); conditions: AAH 320 g/ha; application during weed generation, submerged conditions
Method: as §1

rice flat sedge = experiment: Test Example 3: herbicidal effect by foliage application, Wagner pot (Table 18, symbol E); format: in vivo, rice flat sedge (Cyperus iria)
How it was run: (§3)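 Plants were sown in alluvial soil held under 0.1–0.5 cm standing water and grown 14 days in a greenhouse at 25–30 °C. An emulsifiable formulation, water-diluted to the set dose, was then sprayed onto the foliage, and effects were scored three weeks later using previously defined criteria.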

Italian ryegrass = experiment: Test Example 5: herbicidal effect by foliage application, plastic box (Table 20, symbol K); format: in vivo, Italian ryegrass (Lolium multiflorum); conditions: foliage application, 320 g/ha, three weeks after application
How it was run: as §2

wild oat = experiment: Test Example 5: herbicidal effect by foliage application, plastic box (Table 20, symbol I); format: in vivo, wild oat (Avena fatua); conditions: foliage application, 320 g/ha, three weeks after application
How it was run: as §2

green foxtail [2] = experiment: Test Example 5: herbicidal effect by foliage application, plastic box (Table 20, symbol G); format: in vivo, green foxtail (Setaria viridis); conditions: 320 g/ha
How it was run: as §2

windgrass = experiment: Test Example 5: herbicidal effect by foliage application, plastic box (Table 20, symbol L); format: in vivo, windgrass (Apera spica-venti); conditions: foliage application, 320 g/ha, three weeks after application
How it was run: as §2

lambsquarters [3] = experiment: Test Example 5: herbicidal effect by foliage application, plastic box (Table 20, symbol O); format: in vivo, lambsquarters (Chenopodium album); conditions: 320 g/ha
How it was run: as §2

oval-leafed pondweed = experiment: Test Example 2: herbicidal activity, application during weed generation under submerged conditions (Table 17, symbol C); format: in vivo, oval-leafed pondweed (Monochoria vaginalis); conditions: AAH 320 g/ha; application during weed generation, submerged conditions
Method: as §1

Chinese sprangletop = experiment: Test Example 3: herbicidal effect by foliage application, Wagner pot (Table 18, symbol D); format: in vivo, chinese sprangletop (Leptochloa chinensis)
How it was run: as §3

barnyard grass [4] = experiment: Test Example 3: herbicidal effect by foliage application, Wagner pot (Table 18, symbol H); format: in vivo, barnyard grass (Echinochloa crus-galli)
How it was run: as §3

redroot pigweed [5] = experiment: Test Example 5: herbicidal effect by foliage application, plastic box (Table 20, symbol N); format: in vivo, redroot pigweed (Amaranthus retroflexus); conditions: 320 g/ha
How it was run: as §2

barnyard grass [6] = experiment: Test Example 5: herbicidal effect by foliage application, plastic box (Table 20, symbol H); format: in vivo, barnyard grass (Echinochloa crus-galli); conditions: 320 g/ha
How it was run: as §2

velvetleaf [7] = experiment: Test Example 5: herbicidal effect by foliage application, plastic box (Table 20, symbol M); format: in vivo, velvetleaf (Abutilon theophrasti); conditions: 320 g/ha
How it was run: as §2

southern crabgrass [8] = experiment: Test Example 4: herbicidal effect by soil treatment (Table 19, symbol F); format: in vivo, southern crabgrass (Digitaria ciliaris); conditions: amount of applied herbicide 320 g/ha
How it was run: (§4)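 Three weeks of greenhouse growth at 25° C. to 30° C. followed a uniform surface spray of water-diluted emulsion at a predetermined herbicide amount. Seeds had been sown beforehand under about 1.5 cm of sterilized diluvial soil. Grading followed criteria set out in an earlier test.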

redroot pigweed [9] = experiment: Test Example 4: herbicidal effect by soil treatment (Table 19, symbol N); format: in vivo, redroot pigweed (Amaranthus retroflexus); conditions: amount of applied herbicide 320 g/ha
How it was run: as §4

lambsquarters [10] = experiment: Test Example 4: herbicidal effect by soil treatment (Table 19, symbol O); format: in vivo, lambsquarters (Chenopodium album); conditions: amount of applied herbicide 320 g/ha
How it was run: as §4

green foxtail [11] = experiment: Test Example 4: herbicidal effect by soil treatment (Table 19, symbol G); format: in vivo, green foxtail (Setaria viridis); conditions: amount of applied herbicide 320 g/ha
How it was run: as §4

velvetleaf [12] = experiment: Test Example 4: herbicidal effect by soil treatment (Table 19, symbol M); format: in vivo, velvetleaf (Abutilon theophrasti); conditions: amount of applied herbicide 320 g/ha
How it was run: as §4

barnyard grass [13] = experiment: Test Example 4: herbicidal effect by soil treatment (Table 19, symbol H); format: in vivo, barnyard grass (Echinochloa crus-galli); conditions: amount of applied herbicide 320 g/ha
How it was run: as §4

[14] = foliage application, three weeks after application
[15] = amount of applied herbicide 320 g/ha
[16] = foliage application after 14-day growth, evaluated three weeks after application

With `CCCC(=O)Oc1c(C)nn(C)c(=O)c1-c1c(-c2ccc(Cl)cc2)sc2cc(F)ccc12` [3-016] the “herbicidal effect rating, A: late watergrass” value (late watergrass) was 3 (Herbicidal rate of 40% or more and less than 70%), the “R: persian speedwell, herbicidal effect grade” value (persian speedwell) was 4 (Herbicidal rate of 70% or more and less than 90%) and the “P: chickweed, herbicidal effect grade” value (chickweed) was 3 (Herbicidal rate of 40% or more and less than 70%). The “F: southern crabgrass, herbicidal effect grade” value (southern crabgrass [1]; [14]) was 0 (Herbicidal rate of 5% or less (almost no effect)), the “J: blackgrass, herbicidal effect grade” value (blackgrass) was 0 (Herbicidal rate of 5% or less (almost no effect)) and the “herbicidal effect rating, B: Japanese bulrush” value (Japanese bulrush) was 0 (Herbicidal rate of 5% or less (almost no effect)). For the same molecule, the “herbicidal effect on E: rice flat sedge” value (rice flat sedge; [15]) was 4 (Herbicidal rate of 70% or more and less than 90%), the “K: Italian ryegrass, herbicidal effect grade” value (Italian ryegrass) was 0 (Herbicidal rate of 5% or less (almost no effect)) and the “I: wild oat, herbicidal effect grade” value (wild oat) was 1 (Herbicidal rate of 5% or more and less than 20%). For the same molecule, the “G: green foxtail, herbicidal effect grade” value (green foxtail [2]; [14]) was 0 (Herbicidal rate of 5% or less (almost no effect)), the “L: windgrass, herbicidal effect grade” value (windgrass) was 5 (Herbicidal rate of 90% or more (almost completely withered)) and the “O: lambsquarters, herbicidal effect grade” value (lambsquarters [3]; [14]) was 3 (Herbicidal rate of 40% or more and less than 70%). For the same molecule, the “herbicidal effect rating, C: oval-leafed pondweed” value (oval-leafed pondweed) was 0 (Herbicidal rate of 5% or less (almost no effect)), the “herbicidal effect on D: Chinese sprangletop” value (Chinese sprangletop; [15]) was 4 (Herbicidal rate of 70% or more and less than 90%) and the “herbicidal effect on H: barnyard grass” value (barnyard grass [4]; [15]) was 3 (Herbicidal rate of 40% or more and less than 70%). For the same molecule, the “N: redroot pigweed, herbicidal effect grade” value (redroot pigweed [5]; [14]) was 1 (Herbicidal rate of 5% or more and less than 20%), the “H: barnyard grass, herbicidal effect grade” value (barnyard grass [6]; [14]) was 0 (Herbicidal rate of 5% or less (almost no effect)) and the “M: velvetleaf, herbicidal effect grade” value (velvetleaf [7]; [14]) was 3 (Herbicidal rate of 40% or more and less than 70%).
In the case of `COc1ccc2c(-c3c(O)c(C)nn(C)c3=O)c(-c3ccc(OC(F)(F)F)cc3)sc2c1` [3-170], the “herbicidal effect rating, A: late watergrass” value (late watergrass) is reported as 2 (Herbicidal rate of 20% or more and less than 40%), the “herbicidal effect on F: southern crabgrass (evaluation grade 0-5)” value (southern crabgrass [1]; [16]) is reported as 0 (Herbicidal rate of 5% or less (almost no effect)) and the “herbicidal effect rating, B: Japanese bulrush” value (Japanese bulrush) is reported as 0 (Herbicidal rate of 5% or less (almost no effect)). The “herbicidal effect on rice flat sedge (E)” value (rice flat sedge; 320 g/ha) was 0 (Herbicidal rate of 5% or less (almost no effect)), the “Herbicidal effect by soil treatment, F: southern crabgrass” value (southern crabgrass [8]) was 0 (Herbicidal rate of 5% or less (almost no effect)) and the “Herbicidal effect by soil treatment, N: redroot pigweed” value (redroot pigweed [9]) was 4 (Herbicidal rate of 70% or more and less than 90%). The “Herbicidal effect by soil treatment, O: lambsquarters” value (lambsquarters [10]) was 1 (Herbicidal rate of 5% or more and less than 20%), the “Herbicidal effect by soil treatment, G: green foxtail” value (green foxtail [11]) was 0 (Herbicidal rate of 5% or less (almost no effect)) and the “herbicidal effect on G: green foxtail (evaluation grade 0-5)” value (green foxtail [2]; [16]) was 0 (Herbicidal rate of 5% or less (almost no effect)). For the same molecule, the “herbicidal effect on O: lambsquarters (evaluation grade 0-5)” value (lambsquarters [3]; [16]) was 5 (Herbicidal rate of 90% or more (almost completely withered)), the “Herbicidal effect by soil treatment, M: velvetleaf” value (velvetleaf [12]) was 0 (Herbicidal rate of 5% or less (almost no effect)) and the “herbicidal effect rating, C: oval-leafed pondweed” value (oval-leafed pondweed) was 0 (Herbicidal rate of 5% or less (almost no effect)). For the same molecule, the “Herbicidal effect by soil treatment, H: barnyard grass” value (barnyard grass [13]) was 0 (Herbicidal rate of 5% or less (almost no effect)), the “herbicidal effect on Chinese sprangletop (D)” value (Chinese sprangletop; 320 g/ha) was 0 (Herbicidal rate of 5% or less (almost no effect)) and the “herbicidal effect on barnyard grass (H)” value (barnyard grass [4]; 320 g/ha) was 3 (Herbicidal rate of 40% or more and less than 70%). For the same molecule, the “herbicidal effect on N: redroot pigweed (evaluation grade 0-5)” value (redroot pigweed [5]; [16]) was 4 (Herbicidal rate of 70% or more and less than 90%), the “herbicidal effect on H: barnyard grass (evaluation grade 0-5)” value (barnyard grass [6]; [16]) was 0 (Herbicidal rate of 5% or less (almost no effect)) and the “herbicidal effect on M: velvetleaf (evaluation grade 0-5)” value (velvetleaf [7]; [16]) was 3 (Herbicidal rate of 40% or more and less than 70%).
